Here are results for 13 compounds from patent US20050203086A1, “Methods of treatment using an EP2 selective receptor agonist” (Pfizer Inc., priority 2004, published 2005).

The structures appear in SMILES notation.

In the test the target is T1, prostaglandin E2 type 2 (EP2) receptors (Homo sapiens, UniProt P43116).
T1 construct: These full length receptors are used to prepare 293S cells expressing the EP1, EP2, EP3 and EP4 receptors; expressed in transfected cells; membranes
T1 sequence (P43116 whole entry): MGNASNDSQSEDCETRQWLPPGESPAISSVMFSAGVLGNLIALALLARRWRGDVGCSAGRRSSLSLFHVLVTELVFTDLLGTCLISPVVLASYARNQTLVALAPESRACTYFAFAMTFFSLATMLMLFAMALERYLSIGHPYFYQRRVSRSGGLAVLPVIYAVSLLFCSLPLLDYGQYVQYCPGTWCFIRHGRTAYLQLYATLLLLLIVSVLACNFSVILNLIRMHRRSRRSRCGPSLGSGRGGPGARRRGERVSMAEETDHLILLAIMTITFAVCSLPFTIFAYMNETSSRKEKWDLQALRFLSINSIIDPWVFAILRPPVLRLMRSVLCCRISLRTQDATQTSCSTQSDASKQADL
Description: Assay for Binding to Prostaglandin E2 Receptors (3H-prostaglandin E2 displacement, membranes of transfected 293S cells). The conditions noted are these: concentration displacing 50% of specifically bound 3H-prostaglandin E2, 1 hour at 25° C. As to the method:
Membrane Preparation: All operations are performed at […]. Transfected cells expressing prostaglandin E2 type 1 receptors (EP1), type 2 (EP2), type 3 (EP3) or type 4 (EP4) receptors are harvested and suspended to 2 million cells per ml in Buffer A [50 mM Tris-HCl (pH 7.4), 10 mM MgCl2, 1 mM EDTA, 1 mM Pefabloc peptide, (Boehringer Mannheim Corp., Indianapolis, Ind.), 10 uM Phosporamidon peptide, (Sigma, St. Louis, Mo.), 1 uM pepstatin A peptide, (Sigma, St. Louis, Mo.), 10 uM elastatinal peptide, (Sigma, St. Louis, Mo.), 100 uM antipain peptide, (Sigma, St. Louis, Mo.)]. The cells are lysed by sonification with a Branson Sonifier (Model #250, Branson Ultrasonics Corporation, Danbury, Conn.) in 2 fifteen second bursts. Unlysed cells and debris are removed by centrifugation, at 100×g for 10 min. Membranes are then harvested by centrifugation at 45,000×g for 30 minutes. […] Resuspended membranes are then stored frozen at −80° C. until use.
Binding Assay: Frozen membranes prepared as above are thawed and diluted to 1 mg protein per ml in Buffer A above. […] The membranes with bound ^3H-prostaglandin E2 are trapped by the filter, while the buffer and unbound ^3H-prostaglandin E2 pass through the filter into waste. Each sample is then washed 3 times with 3 ml of [50 mM Tris-HCl (pH 7.4), 10 mM MgCl2, 1 mM EDTA]. The filters are then dried by heating in a microwave oven.
Typically, PCR (polymerase chain reaction) primers corresponding to the 5′ and 3′ ends of the published full length receptor are made according to the well known methods disclosed above and are used in an RT-PCR reaction using the total RNA from human kidney (for EP1), human lung (for EP2), human lung (for EP3) or human lymphocytes (for EP4) as a source. PCR products are cloned by the TA overhang method into pCR2.1 (Invitrogen, Carlsbad, Calif.) and identity of the cloned receptor is confirmed by DNA sequencing.
Stable cell lines expressing the receptor are established following selection of transfected cells with G418.
A word on the IC50: it is the concentration needed to halve the response being measured. `O=C(O)c1ccc(CCCN(CCCc2cccc(Cl)c2)S(=O)(=O)c2ccccc2Cl)s1` [Example 6, 5-(3-((2-Chloro-benzenesulfonyl)-(3-(3-chloro-phenyl)-propyl)-amino)-propyl)-thiophene-2-carboxylic acid] returned a half-maximal inhibitory concentration (IC50) of 315 nM. In other words, the sub-micromolar range.

On to `Cc1ccc(C)c(S(=O)(=O)N(CCCc2cccc(Cl)c2)CCCc2ccc(C(=O)O)s2)c1` [Example 6a, 5-(3-((3-(3-Chloro-phenyl)-propyl)-(2,5-dimethyl-benzenesulfonyl)-amino)-propyl)-thiophene-2 carboxylic acid], for which the IC50 worked out at 325 nM.

In turn, `O=C(O)c1ccc(CCCN(CCCc2cccc(Cl)c2)S(=O)(=O)CCCCNC(=O)c2ccccc2C(=O)O)s1` [Example 6c, 5-(3-((4-(2-Carboxy-benzoylamino)-butane-1-sulfonyl)-(3-(3-chloro-phenyl)-propyl)-amino)-propyl)-thiophene-2-carboxylic acid] displayed an IC50 of 300 nM.

`O=C(O)c1ccc(CCCN(CCCc2cccc(Cl)c2)S(=O)(=O)c2ccc(-n3ncc(=O)[nH]c3=O)cc2)s1` [Example 6d, 5-(3-((3-(3-Chloro-phenyl)-propyl)-(4-(3,5-dioxo-4,5-dihydro-3H-[1,2,4]triazin-2-yl)-benzenesulfonyl)-amino)-propyl)-thiophene-2-carboxylic acid]: the IC50 worked out at 170 nM. This IC50 lies about 1.8-fold lower than the previous one.

Turning to `COC(=O)c1ccccc1S(=O)(=O)N(CCCc1cccc(Cl)c1)CCCc1ccc(C(=O)O)s1` [Example 6e, 5-(3-((3-(3-Chloro-Phenyl)-propyl)-(2-methoxycarbonyl-benzenesulfonyl)-amino)-propyl)-thiophene-2-carboxylic acid], the IC50 is 325 nM.

On to `O=C(O)c1ccc(CCCN(CCCc2cccc(Cl)c2)S(=O)(=O)c2ccc(Br)cc2)s1` [Example 6f, 5-(3-((4-Bromo-benzenesulfonyl)-(3-(3-chloro-phenyl)-propyl)-amino)-propyl)-thiophene-2-carboxylic acid], for which the IC50 is 490 nM.

Take `CCC(C)(C)c1ccc(S(=O)(=O)N(CCCc2cccc(Cl)c2)CCCc2ccc(C(=O)O)s2)cc1` [Example 6g, 5-(3-((3-(3-Chloro-phenyl)-propyl)-(4-(1,1-dimethyl-propyl)-benzenesulfonyl)-amino)-Propyl)-thiophene-2-carboxylic acid]: the 50% inhibitory concentration (IC50) amounted to 350 nM.

`Cc1noc(C)c1S(=O)(=O)N(CCCc1cccc(Cl)c1)CCCc1ccc(C(=O)O)s1` [Example 6h, 5-(3-((3-(3-Chloro-phenyl)-propyl)-(3.5-dimethyl-isoxazole-4-sulfonyl)-amino)-propyl)-thiophene-2-carboxylic acid]: the IC50 turned out to be 140 nM.

Compound `COc1ccc(OC)c(S(=O)(=O)N(CCCc2cccc(Cl)c2)CCCc2ccc(C(=O)O)s2)c1` [Example 6i, 5-(3-((3-(3-Chloro-phenyl)-propyl)-(2,5-dimethoxy-benzenesulfonyl)-amino)-propyl)-thiophene-2-carboxylic acid] gave an IC50 of 270 nM.

In the case of `O=C(O)c1ccc(CCCN(CCCc2cccc(Cl)c2)S(=O)(=O)c2ccccc2F)s1` [Example 6j, 5-(3-((3-(3-Chloro-phenyl)-propyl)-(2-fluoro-benzenesulfonyl)-amino)-propyl)-thiophene-2-carboxylic acid], the IC50 amounted to 375 nM.

The compound `CC(C)NC(=O)N(CCCc1cccc(Cl)c1)CCCc1ccc(C(=O)O)s1` [Example 7a, 5-(3-(1-(3-(3-Chloro-phenyl)-propyl)-3-isopropyl-ureido)-propyl)-thiophene-2-carboxylic acid] registered an IC50 of 400 nM.

In turn, `O=C(O)c1ccc(CCCN(CCCc2cccc(Cl)c2)C(=O)Nc2ccccc2)s1` [Example 7b, 5-(3-(1-(3-(3-Chloro-phenyl)-propyl)-3-phenyl-ureido)-propyl)-thiophene-2-carboxylic acid] showed an IC50 of 140 nM.

For `O=C(O)c1ccc(CCCN(CCCc2cccc(Cl)c2)C(=O)Nc2ccc(Cl)c(Cl)c2)s1` [Example 7c, 5-(3-(1-(3-(3-Chloro-phenyl)-propyl)-3-(3,4-dichloro-phenyl)-ureido)-propyl)-thiophene-2-carboxylic acid], the 50% inhibitory concentration (IC50) turned out to be 260 nM. This IC50 lies about 1.9-fold higher than the previous one.
